According to patent US5102894A, “Substituted piperidine compounds and their use” (Novo Nordisk A/S, priority 1989, dated 1992):
Counter-ions that a name gives are not always drawn.

Columns and labels:
[1] = system: voltage operated calcium channels (VOC); experiment: inhibition of depolarization-induced 45Ca uptake into brain synaptosomes (crude P2 fraction); assay type: biochemical, male Wistar rat; conditions: rat cerebral cortex synaptosomes (P2), KCl-depolarized samples, 15 s uptake at 37° C., pH 7.4; triplicate; from dose response curves
Excerpt: The pharmacological properties of the compounds of the invention can be illustrated by determining their capability to inhibit calcium uptake into brain synaptosomes.
Depolarization of neuronal membranes leads to an opening of socalled `voltage operated calcium channels` (VOC) in the membranes which allows a massive influx of calcium from the extracellular space. A crude synaptosomal preparation (socalled P2 fraction) contains small vesicles surrounded by neuronal membrane and it is possible in such a preparation to study a depolarization-induced opening of VOC.
A male Wistar rat is decapitated and the cerebral cortex removed and homogenized in 10 ml of ice-cold 0.32 M sucrose using a glass homogenizer with a teflon pestle. All subsequent steps for isolation of synaptosomes are done at 0°-4° C. The homogenate is centrifuged at 1000×g for 10 min and the resulting supernatant is re-centrifuged at 18000×g for 20 min. This pellet (P2) is resuspended in 0.32 M sucrose (5 ml per g of original tissue) with a teflon pestle.
The tubes are pre- incubated for 30 min on ice and then for 6 min at 37° C. in a water bath.
The incubation is continued for 15 s.
The amount of radioactivity on the filter disc is determined by liquid scintillation spectrometry.
Test substances are dissolved in 10 ml of 48% ethanol at a concentration of 0.44 mg/ml. Dilutions are made in 48% ethanol to give final concentrations of 0.1, 0.3, 1, 3 and 10 μg/ml. Experiments are performed in triplicate. Controls for depolarized and nondepolarized samples are included in the assay and test substances are only tested in depolarized samples.
The IC50 value is estimated from dose response curves.

[2] = system: peripheral calcium uptake, e.g. in blood vessels and the heart; conditions: cited from earlier work

CCCCCN1CC[C@@H](c2cccs2)[C@H](COc2cccc(CN)c2)C1 (relative stereo) [Compound 28, (+-) trans 3-(3-aminomethylphenoxymethyl)-1-pentyl-4-(2-thienyl)piperidine,HCl]
IC50 (concentration of test substance which inhibits 50% of stimulated uptake of 45Ca) [1]: 30 µg/mL

CCCCN1CC[C@@H](c2cccs2)[C@H](COc2ccccc2OC(C)C)C1 (relative stereo) [Compound 27, (+-) trans 1-butyl-3-(2-isopropoxyphenoxymethyl)-4-(2-thienyl)piperidine, oxalate]
IC50 (concentration of test substance which inhibits 50% of stimulated uptake of 45Ca) [1]: 13 µg/mL

CCCCCN1CC[C@@H](c2ccsc2)[C@H](COc2ccc(C#N)cc2)C1 (relative stereo) [Compound 39, (+-) trans 3-(4-cyanophenoxymethyl)-1-pentyl-4-(3-thienyl)piperidine, HCl]
IC50 (concentration of test substance which inhibits 50% of stimulated uptake of 45Ca) [1]: 2.7 µg/mL

CCCCCN1CC[C@@H](c2ccsc2)[C@H](COc2cccc(C(F)(F)F)c2)C1 (relative stereo) [Compound 31, (+-) trans 1-pentyl-4-(3-thienyl)-3-(3-trifluoromethylphenoxymethyl)piperidine, oxalate]
IC50 (concentration of test substance which inhibits 50% of stimulated uptake of 45Ca) [1]: 4.7 µg/mL

CCCCCN1CC[C@@H](c2cccs2)[C@H](COc2ccccc2C#N)C1 (relative stereo) [Compound 15, (+-) trans 3-(2-cyanophenoxymethyl)-1-pentyl-4-(2-thienyl)piperidine, HCl]
IC50 (concentration of test substance which inhibits 50% of stimulated uptake of 45Ca) [1]: 7.2 µg/mL

COc1ccc(CCN(C)CCCC(C#N)(c2ccc(OC)c(OC)c2)C(C)C)cc1OC (stereo not drawn) [Verapamil]
activity against peripheral calcium uptake [2]: have activity

CCCCCN1CC[C@@H](c2ccsc2)[C@H](COc2ccc(Cl)cc2)C1 (relative stereo) [Compound 37, (+-) trans 3-(4-chlorophenoxymethyl)-1-pentyl-4-(3-thienyl)piperidine, HCl]
IC50 (concentration of test substance which inhibits 50% of stimulated uptake of 45Ca) [1]: 3.6 µg/mL

CCCCCN1CC[C@@H](c2ccsc2)[C@H](COc2ccc3c(c2)OCO3)C1 (relative stereo) [Compound 30, (+-) trans 3-(3,4-methylenedioxyphenoxymethyl)-1-pentyl-4-(3-thienyl)piperidine, HCl]
IC50 (concentration of test substance which inhibits 50% of stimulated uptake of 45Ca) [1]: 4.9 µg/mL

CCC(C)CN1CC[C@@H](c2ccsc2)[C@H](COc2cccc(C(F)(F)F)c2)C1 (relative stereo) [Compound 47, (+-) trans(2-methylbutyl)-4-(3-thienyl)-3-(3-trifluoromethylphenoxymethyl)piperidine, HCl]
IC50 (concentration of test substance which inhibits 50% of stimulated uptake of 45Ca) [1]: 5.8 µg/mL

CCCCN1CC[C@@H](c2cccs2)[C@H](COc2cccc(OC)c2)C1 (relative stereo) [Compound 25, (+-) trans 1-butyl-4-(2-thienyl)-3-(3-methoxyphenoxymethyl)piperidine, HCl]
IC50 (concentration of test substance which inhibits 50% of stimulated uptake of 45Ca) [1]: 9.1 µg/mL

CCCCCN1CC[C@@H](c2ccsc2)[C@H](COc2ccc(OC(F)(F)F)cc2)C1 (relative stereo) [Compound 43, (+-) trans 3-(4-trifluoromethoxyphenoxymethyl)-1-pentyl-4-(3-thienyl)piperidine, HCl]
IC50 (concentration of test substance which inhibits 50% of stimulated uptake of 45Ca) [1]: 10 µg/mL

COC(=O)C1=C(C)NC(C)=C(C(=O)OC)C1c1ccccc1[N+](=O)[O-] [Nifedipine]
activity against peripheral calcium uptake [2]: have activity

FC(F)(F)c1cccc(OC[C@@H]2CNCC[C@H]2c2ccsc2)c1 (relative stereo) [Compound 44, (+-) trans 4-(thienyl)-3-(3-trifluoromethylphenoxymethyl)piperidine, HCl]
IC50 (concentration of test substance which inhibits 50% of stimulated uptake of 45Ca) [1]: 2.8 µg/mL

CCCCN1CC[C@@H](c2ccc(C)o2)[C@H](COc2cccc(C(F)(F)F)c2)C1 (relative stereo) [Compound 12, HCl]
IC50 (concentration of test substance which inhibits 50% of stimulated uptake of 45Ca) [1]: 18 µg/mL

COc1ccc([C@@H]2Sc3ccccc3N(CCN(C)C)C(=O)[C@@H]2OC(C)=O)cc1 [Diltiazem]
activity against peripheral calcium uptake [2]: have activity
